Experiments:
[1] = target: T1, ASGP receptor (biotinylated ASGPR) (Homo sapiens, UniProt P07306); assay type: binding; conditions: SPR; Table 2; read-out: ASGPR SPR Binding KD
T1 construct: biotin (biotinylated)
T1 sequence (P07306 1-291): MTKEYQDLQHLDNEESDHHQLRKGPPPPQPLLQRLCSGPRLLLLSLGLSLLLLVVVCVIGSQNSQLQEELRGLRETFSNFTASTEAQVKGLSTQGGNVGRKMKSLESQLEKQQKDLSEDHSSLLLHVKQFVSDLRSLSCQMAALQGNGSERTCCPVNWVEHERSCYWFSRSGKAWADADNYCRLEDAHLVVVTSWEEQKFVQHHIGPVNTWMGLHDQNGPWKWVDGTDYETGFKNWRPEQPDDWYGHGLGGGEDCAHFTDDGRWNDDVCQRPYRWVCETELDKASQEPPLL

[2] = target: TNF (Homo sapiens, UniProt P01375); test: TNF FP Assay; assay type: binding; conditions: TNF 20 nM, 25° C., 2 hours
Sequence of TNF (P01375 77-233 limits assumed): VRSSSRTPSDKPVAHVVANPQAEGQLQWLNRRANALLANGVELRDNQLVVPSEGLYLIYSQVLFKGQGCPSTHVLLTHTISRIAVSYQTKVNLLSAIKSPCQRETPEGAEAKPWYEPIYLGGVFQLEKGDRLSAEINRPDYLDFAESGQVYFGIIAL
Experimental: TNF (20 nM) and test compound in 47 mM HEPES pH 6.5, 47 mM NaCl, 0.9 mM EDTA, 0.007% Triton X-100 were incubated at 25° C. for 2 hours. Fluorescence data was read with an Envision and plotted versus Compound concentration and fit to a single-site binding model.

Row | Structure (SMILES) | Kd [1] [µM] | IC50 ([2]; Table 2) [µM] | IC50 ([2]; Table 2, numeric bound) [µM]
1 | O=C(COCCOCC(=O)N1CCN(Cc2ccc(-c3c[nH]c4ccncc34)c(OCCc3ccc(-c4cccc5ccncc45)cc3)c2)CC1)NC[C@H]1OC[C@H](Nc2cncc(C(F)(F)F)n2)[C@@H](O)[C@H]1O [compound 3] | < 0.1 | < 0.1 | –
2 | O=C(COCCOCCOCCOCCOCC(=O)N1CCN(Cc2ccc(-c3c[nH]c4ccncc34)c(OCCc3ccc(-c4cccc5ccncc45)cc3)c2)CC1)NC[C@H]1OC[C@H](Nc2cncc(C(F)(F)F)n2)[C@@H](O)[C@H]1O [compound 7] | < 0.1 | < 0.1 | –
3 | O=C(NC[C@H]1OC[C@H](Nc2cncc(C(F)(F)F)n2)[C@@H](O)[C@H]1O)N1CCN(Cc2ccc(-c3c[nH]c4ccncc34)c(OCCc3ccc(-c4cccc5ccncc45)cc3)c2)CC1 [compound 8] | < 0.1 | > 1 | –
4 | CC1(C)C(=O)c2ccc(-c3cnc(N4CCN5C(=O)N(CCOCCNC(=O)CNC[C@H]6OC[C@H](Nc7cncc(C(F)(F)F)n7)[C@@H](O)[C@H]6O)C[C@@H]5C4)nc3)nc2N1Cc1cccnc1C#N [compound 10] | < 0.1 | > 1 | –
5 | CC1(C)C(=O)c2ccc(-c3cnc(N4CCN5C(=O)N(CCCNC(=O)COc6ccc(CN7CCN(C[C@H]8OC[C@H](Nc9cncc(C(F)(F)F)n9)[C@@H](O)[C@H]8O)CC7)cc6)C[C@@H]5C4)nc3)nc2N1Cc1cccnc1C#N [compound 12] | < 0.1 | 0.1 to 0.5 | –
6 | CC1(C)C(=O)c2ccc(-c3cnc(N4CCN5C(=O)N(CCCNC(=O)[C@H]6CC[C@H](C(=O)NC[C@H]7OC[C@H](Nc8cncc(C(F)(F)F)n8)[C@@H](O)[C@H]7O)CC6)C[C@@H]5C4)nc3)nc2N1Cc1cccnc1C#N [compound 15] | < 0.1 | > 1 | –
7 | CC1(C)C(=O)c2ccc(-c3cnc(N4CCN5C(=O)N(CCOCCNC(=O)[C@H]6CC[C@H](C(=O)NC[C@H]7OC[C@H](Nc8cncc(C(F)(F)F)n8)[C@@H](O)[C@H]7O)CC6)C[C@@H]5C4)nc3)nc2N1Cc1cccnc1C#N [compound 17] | < 0.1 | 0.5 to 1 | –
8 | CC1(C)C(=O)c2ccc(-c3cnc(N4CCN5C(=O)N(CCOCCNC(=O)c6ccc(C(=O)NC[C@H]7OC[C@H](Nc8cncc(C(F)(F)F)n8)[C@@H](O)[C@H]7O)cc6)C[C@@H]5C4)nc3)nc2N1Cc1cccnc1C#N [compound 18] | – | > 1 | –

Other lines, results leading:

Row | Kd [1] [µM] | IC50 ([2]; Table 2) [µM] | IC50 ([2]; Table 2, numeric bound) [µM] | Structure (SMILES)
9 | < 0.1 | 0.1 to 0.5 | – | O=C(CC(=O)NC[C@H]1OC[C@H](Nc2cncc(C(F)(F)F)n2)[C@@H](O)[C@H]1O)NCCOCCOCCOCc1ccc(-c2cccc3ccncc23)c(OCCc2ccc(-c3cccc4ccncc34)cc2)c1 [compound 1]
10 | < 0.1 | > 1 | – | O=C(CCOCC(COCCC(=O)NCCOCCOCCOCCOC[C@H]1OC[C@H](Nc2cncc(C(F)(F)F)n2)[C@@H](O)[C@H]1O)NCC(=O)N1CCN(Cc2ccc(-c3c[nH]c4ccncc34)c(OCCc3ccc(-c4cccc5ccncc45)cc3)c2)CC1)NCCOCCOCCOCCOC[C@H]1OC[C@H](Nc2cncc(C(F)(F)F)n2)[C@@H](O)[C@H]1O [compound 2]
11 | < 0.1 | – | > 0.112 | O=C(COc1ccc(CN2CCN(C[C@H]3OC[C@H](Nc4cncc(C(F)(F)F)n4)[C@@H](O)[C@H]3O)CC2)cc1)N1CCN(Cc2ccc(-c3c[nH]c4ccncc34)c(OCCc3ccc(-c4cccc5ccncc45)cc3)c2)CC1 [compound 4]
12 | < 0.1 | > 1 | – | O=C(CCOCC(COCCC(=O)NCCOCCOCCOCCOC[C@H]1OC[C@H](Nc2cncc(C(F)(F)F)n2)[C@@H](O)[C@H]1O)NC(=O)COCCOCCOCC(=O)N1CCN(Cc2ccc(-c3c[nH]c4ccncc34)c(OCCc3ccc(-c4cccc5ccncc45)cc3)c2)CC1)NCCOCCOCCOCCOC[C@H]1OC[C@H](Nc2cncc(C(F)(F)F)n2)[C@@H](O)[C@H]1O [compound 9]
13 | < 0.1 | 0.1 to 0.5 | – | CC1(C)C(=O)c2ccc(-c3cnc(N4CCN5C(=O)N(CCCNC(=O)CCN6CCN(CC(=O)NC[C@H]7OC[C@H](Nc8cncc(C(F)(F)F)n8)[C@@H](O)[C@H]7O)CC6)C[C@@H]5C4)nc3)nc2N1Cc1cccnc1C#N [compound 11]
14 | < 0.1 | > 1 | – | CC1(C)C(=O)c2ccc(-c3cnc(N4CCN5C(=O)N(CCCNC(=O)c6ccc(C(=O)NC[C@H]7OC[C@H](Nc8cncc(C(F)(F)F)n8)[C@@H](O)[C@H]7O)cc6)C[C@@H]5C4)nc3)nc2N1Cc1cccnc1C#N [compound 13]
15 | < 0.1 | 0.1 to 0.5 | – | CC1(C)C(=O)c2ccc(-c3cnc(N4CCN5C(=O)N(CCCNC(=O)CNC[C@H]6OC[C@H](Nc7cncc(C(F)(F)F)n7)[C@@H](O)[C@H]6O)C[C@@H]5C4)nc3)nc2N1Cc1cccnc1C#N [compound 14]
16 | < 0.1 | > 1 | – | CC1(C)C(=O)c2ccc(-c3cnc(N4CCN5C(=O)N(CCCNC(=O)COc6cccc(CC(=O)NC[C@H]7OC[C@H](Nc8cncc(C(F)(F)F)n8)[C@@H](O)[C@H]7O)c6)C[C@@H]5C4)nc3)nc2N1Cc1cccnc1C#N [compound 16]
